The subject of data set [1] is liver. The following applies: mouse, in vivo.
Protocol: Animals. […] Wild type, p53^−/−, INK4a/Arf^−/− and p53^−/−;INK4a/Arf^−/− mice were treated twice a week with 12 consecutive i.p. (intraperitoneal) injections of 1 ml/kg CCl4 to induce liver fibrosis. GFAP-tTA;TRE-shp53 mice were treated similarly for 2 weeks. Animals were sacrificed 48-72 hours after the last injection and their livers used for further analysis. To modify NK cell function, mice were treated three times weekly either i.v. with an anti-Asialo-GM1 antibody (25 μl in 200 μl saline, Wako, Va., USA) for 10 or 20 days or i.p. with polyI:C (Sigma, USA) 1 mg/kg.
Histological analysis. Paraffin embedded tissue sections were stained with hematoxylin-eosin for routine examination, or with Sirius Red for visualization of fibrotic deposition. At least 3 whole sections from each animal were scanned by Laser Scanner Cytometry (CompuCyte, MA) for fibrosis quantification. These images were quantified using NIH ImageJ software (http://rsb.info.nih.gov/ij/). We calculated the amount of fibrotic tissue in diseased animals relatively to the basal amount of Sirius Red staining present in normal liver.
Frozen sections of liver tissue, or adherent cells were fixed with 0.5% Gluteraldehyde in PBS for 15 min, washed with PBS supplemented with 1 mM MgCl2 and stained for 5-6 hrs in PBS containing 1 mM MgCl2, 1 mg/ml X-Gal and 5 mM of each Potassium ferricyanide and Potassium ferrocyanide. Sections were counterstained with Eosin.
To investigate the relationship between fibrosis and cellular senescence, 7-9 week old female mice were subjected to a six week treatment with CCl4, a chemical widely used to induce fibrosis in experimental animals (Bataller and Brenner, 2005, J. Clin. Invest. 115, 209-218, the contents of which are hereby incorporated by reference).
The subject of data set [2] is senescent IMR-90 cells. The data set is described as follows: In vitro killing assay of growing and senescent IMR-90 cells by YT cells (NK cell line). Type of data set: cell-based, human. The following applies: range of target:effector cell ratios. How it is done:
Tissue culture. Human IMR-90 foetal lung fibroblasts (ATCC) and primary human hepatic myofibroblasts (activated HSCs) (Dominion Pharmakine, Spain) were grown in standard conditions (Narita et al., 2003). Senescence was induced by prolonged culturing, etoposide (100 μM, Sigma, USA) treatment, or infection of IMR-90 cells with oncogenic rasV12 as described (Narita et al., 2003). For in vitro cytotoxicity assays, growing or senescent cells were plated in 6-well plates at 50,000 cells per well. 5×10^5 YT cells (from DSMZ, Germany) were subsequently added to target cells. The plates were incubated under normal conditions for 12 hours, and then NK cell cytotoxicity was determined using crystal violet staining of remaining adherent cells or followed with a Zeiss AxioObserver microscope equipped with 37° C. incubator hood and 6.3% CO2 cover.
To test if a Perforin mediated pathway is involved in senescent cell killing in vitro, the in vitro killing assays of growing and senescent IMR-90 cells were used (the assay is described at Krizhanovsky, V. et al., “Senescence of Activated Stellate Cells Limits Liver Fibrosis,” Cell, 134, 657-667 (Aug. 22, 2008), which is hereby incorporated by reference). Growing and senescent IMR-90 cells were incubated with different amounts of YT cells (NK cell line) in presence or absence of granule exocytosis pathway inhibitor Concanamycin A (CMA). […]

Data set [3] has as its system senescent activated HSCs in fibrotic livers. As to the kind of experiment: Fibrosis reversion and senescent cell clearance in CCl4 treated mice with modified NK cell function. Type of data set: in vivo, mouse. On the procedure:
Animals. […] GFAP-tTA mice were obtained from the Jackson Laboratory.
Sections were counterstained with Eosin.
Immunoblotting. Liver tissue was lysed in Laemmli buffer using a tissue homogenizer. Equal amounts of protein were separated on 12% SDS-polyacrylamide gels and transferred to PVDF membranes. Detection was performed using anti-αSMA (DakoCytomation, Denmark), anti-13Actin (AC-15, Sigma, USA).
Expression array analysis and quantitative RT-PCR. […] Affymetrix Human Genome U133 Plus 2.0Array were used to identify genes expressed in HSC.
To determine whether NK cells can target senescent cells in vivo and their impact on liver fibrosis, modulating NK cell function was tested for how it would influence the frequency of senescent activated HSCs and fibrosis resolution in livers obtained from mice following a six week course of CCl4 or at various times after ceasing treatment. To deplete NK cells mice were treated with neutralizing antibodies [anti-AsialoGM1 (Radaeva et al., 2006; Xue et al., 2007)] during the period following CCl4 withdrawal. Conversely, to enhance the immune response, we treated mice with polyinosinic-polycytidylic acid (polyI:C), which induces interferon-γ and enhances NK cell activity in the liver (Radaeva et al., 2006).

Data set [4] has as its system primary human activated HSCs. As to the kind of experiment: Senescence induction in cultured primary human activated HSCs. Type of data set: cell-based. The following applies: etoposide 100 μM, within several days of treatment.
Where [5] appears, read: wild type mice after six week CCl4, treated 10 or 20 days following CCl4 withdrawal, compared to saline controls.

“Also recorded” adds a separate entry of the source.

Consider “3,5-diethoxycarbonyl-1,4-dihydrocollidine [DDC]”, for which, in data set [1], the “accumulation of senescent cells in livers of treated mice” value is “accumulated”.

On to `C/C=C/[C@H]1O[C@@](O)([C@@H](C)[C@H](O)[C@H](C)[C@H]2OC(=O)/C(OC)=C/C(C)=C/[C@@H](C)[C@@H](O)[C@@H](CC)[C@@H](O)[C@H](C)C/C(C)=C/C=C/[C@@H]2OC)C[C@@H](O[C@H]2C[C@@H](O)[C@H](OC(N)=O)[C@@H](C)O2)[C@@H]1C` [CMA, Concanamycin A], for which the “preferential killing of senescent cells by NK cells (YT) in presence of inhibitor” value in data set [2] is reported as “significantly inhibited”.

As for “polyinosinic-polycytidylic acid [polyI:C]”, in data set [3] (quantitative RT-PCR and immunoblot, 10 days treatment after CCl4, compared to saline), the “αSMA mRNA and protein levels in fibrotic livers (activated HSC marker)” value is recorded as “decreased”. Besides, in data set [3] (setting [5]), the “fibrosis / fibrotic tissue (Sirius Red staining)” value is on record as “less fibrotic tissue; also recorded: depleted more efficiently” and the “senescent cells (SA-β-gal positive) in fibrotic liver” value was “fewer senescent cells; also recorded: enhanced clearance of senescent cells”.

As to `ClC(Cl)(Cl)Cl` [CCl4], in data set [1], the “accumulation of senescent cells in livers of treated mice” value is “accumulated in fibrotic livers”, the “increase in Sirius Red-positive area over untreated controls” value is recorded as 3 to 4 fold and the “liver area Sirius Red-positive (quantitative laser scanning cytometry)” value is on record as “Approximately 2%”.

Regarding `COc1cc([C@@H]2c3cc4c(cc3[C@@H](O[C@@H]3O[C@@H]5CO[C@@H](C)O[C@H]5[C@H](O)[C@H]3O)[C@H]3COC(=O)[C@H]23)OCO4)cc(OC)c1O` [etoposide], the “senescence of activated HSCs (proliferation stop, SA-β-gal activity, heterochromatic foci)” value in data set [4] is listed as “undergo senescence”.

The values are drawn from US20100310504A1, “METHODS FOR TREATING FIBROSIS BY MODULATING CELLULAR SENESCENCE” (priority 2007, published 2010).
